Among the data in patent US5356935A, “Reduced phenanthrenes” (Eli Lilly and Company, priority 1993, dated 1994) are inhibition values, retold here.

One experiment addresses T1, Type II 5α-reductase (Homo sapiens, UniProt P31213).
T1 construct: from tissue; host or cells: human prostate tissue from surgery, 100,000×g pellet of homogenate
T1 sequence (P31213 1-254): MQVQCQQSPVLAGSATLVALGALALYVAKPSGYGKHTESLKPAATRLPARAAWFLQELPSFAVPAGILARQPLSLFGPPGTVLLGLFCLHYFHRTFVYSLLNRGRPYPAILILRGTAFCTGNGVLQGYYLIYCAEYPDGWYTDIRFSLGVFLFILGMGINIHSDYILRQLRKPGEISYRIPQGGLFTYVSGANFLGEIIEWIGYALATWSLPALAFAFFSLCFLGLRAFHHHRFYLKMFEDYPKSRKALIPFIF
In words: Human Type II steroid 5α-reductase assay (human prostate enzyme, [3H]-testosterone conversion). In kind it is biochemical. Particulars: compared to control reaction mixtures, read-out: percent inhibition of Type II 5AR; for inhibition at 1 µM: compound concentration 1 μM; for inhibition at 3 µM: compound concentration 3 μM; for inhibition at 10 µM: compound concentration 10 μM; for inhibition at 0.3 µM: compound concentration .3 μM. How it is done:
The same procedure as above was used for preparations using tissue from prostate surgery with the following changes: The buffer used was 20 mM sodium phosphate, pH 6.5; and the pellet was resuspended in the sodium phosphate buffer containing 20% glycerol.
(§1) This enzyme assay is based on the conversion of [^3 H]-testosterone to [^3 H]-5α-dihydrotestosterone (DHT) and other 5α-reduced metabolites. While about 90% of the 5α-reduced metabolites formed in these assays was DHT, androstanedione was formed at about 10%. Essentially no androsterone was detected. In a total volume of 1.0 ml, the assay contained 2.6 μCi [^3 H]-testosterone (50 nM), 500 μM of reduced nicotine adeninc dinucleotide phosphate, 100 mM Tris-HCl, pH 7.5, (in Type II assays, 40 mM sodium acetate at pH 5.5 is used instead of Tris-HCl) and test compounds as indicated. Test compounds were added in 20 μl of dimethylsulfoxide (20 μl of dimethylsulfoxide was added to blanks and controls). The reaction was initiated by the addition of 0.5 mg of Type I or Type II 5α-reductase. The reaction mixture was incubated for 30 min at 25° and terminated by the addition of 1 ml ice-cold stopping solution. The stopping solution contained 40 μM each of non-radioactivetestosterone, DHT, androstenedione, androstanedione, androsterone, androstan-3β,17β-diol, and androstan-3α,17β-diol.
(§2) The samples were prepared for high performance liquid chromatography by solid phase extraction. Disposable solid matrix extraction columns (C-18 reversed;phase, 6 ml, 500 mg; Bond Elut™ from Analytichem International; Harbor City, Calif.) were conditioned by washing with 5 ml of methanol followed by 5 ml of deionized water. The reaction mixtures were then applied to the columns. The columns were subsequently washed with 5 ml of acetone:water (1:4), followed by 0.3 ml of methanol. The samples were then eluted with 3 ml of methanol and collected in 20 ml scintillation vials. Three ml of water was then added to each scintillation vial. The solutions were then transferred to tubes and centrifuged for 30 min at 1000×g to remove any particulate material before chromatography.
(§3) The [^3 H]-testosterone substrate and its metabolites were separated by chromatography using a C-18 reversed phase column (Beckman Ultrasphere 5 μm spherical 80A pore, part no. 235329, 4.6 mm i.d.×[…]) with an isocratic mobile phase (46 water: 46 methanol: 8 tetrahydrofuran by volume). The column temperature was maintained at 35° and the flow rate was 1.5 ml/min. A 400 μl aliquot was injected onto the column and radioactivity was determined using a Beckman 171 in-line flow radioisotope detector in conjunction with Rainin Dynamax™ software and a Macintosh computer. The flow rate of the Atomflow™ scintillation fluid was 4.5 ml / min.

Another experiment addresses T2, Type I 5α-reductase (Homo sapiens, UniProt P18405).
T2 construct: Scalp punch biopsies from graft recipient sites were obtained from human hair transplant procedures; from tissue; host or cells: human scalp punch biopsies (pooled, 60-75 punches from one surgical procedure), 100,000×g pellet of homogenate
T2 sequence (P18405 1-259): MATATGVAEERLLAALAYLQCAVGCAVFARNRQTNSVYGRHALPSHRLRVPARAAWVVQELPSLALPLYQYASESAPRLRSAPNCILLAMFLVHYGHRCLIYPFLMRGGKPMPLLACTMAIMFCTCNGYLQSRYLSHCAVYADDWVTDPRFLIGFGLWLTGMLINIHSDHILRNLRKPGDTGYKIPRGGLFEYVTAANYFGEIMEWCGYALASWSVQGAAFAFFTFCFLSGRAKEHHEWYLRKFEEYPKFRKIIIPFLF
In words: Human Type I steroid 5α-reductase assay (human scalp enzyme, [3H]-testosterone conversion). To be noted: compared to control reaction mixtures, read-out: percent inhibition of Type I 5AR; for inhibition at 0.01 µM: compound concentration .01 μM; for inhibition at 0.03 µM: compound concentration .03 μM; for inhibition at 0.1 µM: compound concentration .1 μM. In kind it is biochemical. As for the experimental part:
Scalp punch biopsies from graft recipient sites were obtained from human hair transplant procedures immediately after surgery and were frozen on dry ice and stored at -80° C. Approximately 60-75 punches from one surgical procedure were used to generate an enzyme preparation. The subcutaneous tissue was cut away and discarded. The skin was frozen with liquid nitrogen and pulverized to powder. The powder was homogenized in 30 ml of ice-cold buffer (20 mM Tris-HCl, pH 7.5) using a Brinkmann Polytron (Westbury, N.Y.) with a PTA 10-S robe and a setting of 7. The homogenization procedure consisted of four 15 second pulses. Connective tissue was cleared from the probe with forceps between pulses. The homogenate was then filtered through cheese cloth and the filtrate centrifuged at 100,000×g for one hour in a Beckman L8-60M ultracentrifuge. The pellet was resuspended by homogenization with a Dounce homogenizer using the same buffer solution. An aliquot was taken for protein determination by the Lowry method, Lowry, et al., Protein Measurement with the Folin Phenol Reagent, J. Biol. Chem., 193,265-75 (1951). Aliquots of the enzyme preparation were stored at -80° until use.
as §1, §2, §3

In the case of `C[C@]12CCC(=O)C(N)=C1CCc1cc(Cl)ccc12` [Example 1, (R)-1-amino-7-chloro-4,4a,9,10-tetrahydro-4a-methyl-2(3H)-phenanthreneone], at Type II 5α-reductase, the inhibition at 1 µM was determined as 55%, the inhibition at 3 µM came out at 49%, the inhibition at 10 µM worked out at 63% and the inhibition at 0.3 µM was 47%. On Type I 5α-reductase, the inhibition at 0.01 µM turned out to be 0%, the inhibition at 0.03 µM was 35% and the inhibition at 0.1 µM is 42%.

On to `C[C@]12CCC(=O)C(N)=C1C=Cc1cc(Cl)ccc12` [Example 2, (R)-1-amino-7-chloro-4,4a-dihydro-4a-methyl-2(3H)-phenanthreneone], for which, on Type II 5α-reductase, the inhibition at 1 µM came out at 16%, the inhibition at 3 µM worked out at 33%, the inhibition at 10 µM stood at 36% and the inhibition at 0.3 µM came out at 7%. Moreover, at Type I 5α-reductase, the inhibition at 0.01 µM was 0%, the inhibition at 0.03 µM was 3% and the inhibition at 0.1 µM stood at 26%.

A word on the inhibition: it is the share of the control response that was lost under treatment.
